In US20040097432A1, “Method of reducing cholesterol” (ACCESS BUSINESS GROUP INTERNATIONAL LLC., priority 2002, published 2004):

Tested on: HepG2 hepatocytes
Assay: Inhibition of cholesterol synthesis in HepG2 hepatocytes (secreted cholesterol and cholesteryl ester, AmplexRed)
Type: cell-based
Procedure: HepG2 hepatocytes were used as a model to study the inhibition of cholesterol synthesis according to the procedures described in Dashti, N., et al., J. Lipid Res. 28:423-436 (1987) and Mohammadi, A., et al., Arterioscler. Thromb. Vasc. Biol., […]:783-793 (1998). […] Amounts of secreted cholesterol and cholesteryl ester are measured from acetate fed hepatocyte culture media using a fluorescent indicator AmplexRed.
The same cholesterol inhibition model used in Example I was used to determine the cholesterol synthesis inhibition of theaflavins, including theaflavin and gallate esters of theaflavin.

| Structure (SMILES) | inhibition at 50 µg/mL (Homo sapiens, 0.05 mg/ml theaflavin, acetate fed HepG2 culture media, FIG. 1, read-out: inhibitory effect (cholesterol synthesis/release)) [%] | dose specific response of hepatocytes compared to Lipotor (same weight basis (tablet weight, 6.7% actives), HepG2, FIG. 1) | cholesterol inhibition activity (contribution among materials tested) (HepG2, dose response FIG. 2, materials of Table I) |
| --- | --- | --- | --- |
| O=c1c(O)cc([C@H]2Oc3cc(O)cc(O)c3C[C@H]2O)cc2c([C@H]3Oc4cc(O)cc(O)c4C[C@H]3O)cc(O)c(O)c12 [theaflavin, Theaflavin] | ~30 | comparable or slightly better than Lipotor® |  |
| O=C(O[C@@H]1Cc2c(O)cc(O)cc2O[C@@H]1c1cc(=O)c(O)c2c(O)c(O)cc([C@H]3Oc4cc(O)cc(O)c4C[C@H]3O)c2c1)c1cc(O)c(O)c(O)c1 [theaflavin-3-gallate] |  |  | provided much of the cholesterol inhibition activity |
